Laboratory results: ChEMBL document CHEMBL1156033, “Discovery of the imidazo[1,5-a][1,2,4]-triazolo[1,5-d][1,4]benzodiazepine scaffold as a novel, potent and selective GABA(A) alpha5 inverse agonist series” (Bioorg Med Chem Lett, 2009)
In brackets after ≈: the same amount, converted by molar mass. Activity calls are given as the source filed them. The rule behind the calls is not given here.

How the values were obtained:
[1] = target: T1, GABA-A receptor; alpha-5/beta-3/gamma-2 (Homo sapiens, UniProt P18507+P28472+P31644)
T1 sequence (P18507 whole entry): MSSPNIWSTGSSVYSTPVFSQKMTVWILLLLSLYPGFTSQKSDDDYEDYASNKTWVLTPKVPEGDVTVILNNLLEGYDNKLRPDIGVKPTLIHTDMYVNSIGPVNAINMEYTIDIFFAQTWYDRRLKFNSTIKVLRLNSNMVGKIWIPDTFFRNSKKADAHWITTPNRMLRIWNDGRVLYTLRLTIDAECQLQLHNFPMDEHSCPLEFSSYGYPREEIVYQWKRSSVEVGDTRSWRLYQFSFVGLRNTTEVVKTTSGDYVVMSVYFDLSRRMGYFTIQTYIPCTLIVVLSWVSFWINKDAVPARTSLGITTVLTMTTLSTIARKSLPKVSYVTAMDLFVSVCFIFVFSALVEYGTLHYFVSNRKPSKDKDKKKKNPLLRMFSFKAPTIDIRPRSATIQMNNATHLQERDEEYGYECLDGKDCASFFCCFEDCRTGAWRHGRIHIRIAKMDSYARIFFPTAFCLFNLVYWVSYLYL
T1 sequence (P28472 whole entry): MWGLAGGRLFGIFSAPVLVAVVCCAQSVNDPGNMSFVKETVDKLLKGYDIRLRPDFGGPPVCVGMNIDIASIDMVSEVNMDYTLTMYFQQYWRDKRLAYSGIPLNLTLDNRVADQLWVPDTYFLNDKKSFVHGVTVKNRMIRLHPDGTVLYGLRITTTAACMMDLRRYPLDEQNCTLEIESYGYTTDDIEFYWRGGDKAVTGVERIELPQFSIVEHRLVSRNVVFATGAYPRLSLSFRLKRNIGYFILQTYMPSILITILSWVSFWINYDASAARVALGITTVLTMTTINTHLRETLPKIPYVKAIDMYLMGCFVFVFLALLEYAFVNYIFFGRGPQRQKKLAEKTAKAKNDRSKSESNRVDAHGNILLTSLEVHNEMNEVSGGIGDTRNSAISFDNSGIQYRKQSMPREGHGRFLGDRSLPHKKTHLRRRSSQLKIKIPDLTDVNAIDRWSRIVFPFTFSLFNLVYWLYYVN
T1 sequence (P31644 whole entry): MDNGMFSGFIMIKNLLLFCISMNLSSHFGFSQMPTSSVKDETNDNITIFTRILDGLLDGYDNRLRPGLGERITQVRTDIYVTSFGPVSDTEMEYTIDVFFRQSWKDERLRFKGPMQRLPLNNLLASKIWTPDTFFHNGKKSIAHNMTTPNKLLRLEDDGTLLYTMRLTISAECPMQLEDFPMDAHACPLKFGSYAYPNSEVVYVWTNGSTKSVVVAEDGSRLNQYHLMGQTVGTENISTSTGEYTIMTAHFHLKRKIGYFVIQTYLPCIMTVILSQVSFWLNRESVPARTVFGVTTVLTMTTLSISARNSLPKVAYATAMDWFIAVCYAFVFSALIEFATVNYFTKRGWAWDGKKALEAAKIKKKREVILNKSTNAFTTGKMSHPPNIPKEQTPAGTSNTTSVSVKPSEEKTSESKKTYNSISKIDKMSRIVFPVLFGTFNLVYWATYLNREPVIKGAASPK
Description: Binding affinity to GABAA alpha-5-beta-3-gamma-2 receptor

Rattus norvegicus [2] = assay: Inhibition of scopolamine-induced cognitive deficit in Wistar rat at 3 mg/kg, ip by passive avoidance test; format: functional, organism-based; parameters: dose 3 mg/kg
physchem [3] = details: buffer, pH 7.4
Description: Lipophilicity, log Dof the compound at pH 7.4

in vitro = details: PAMPA
Description: Membrane permeability by PAMPA

physchem [4] = assay: physchem
Rattus norvegicus [5] = assay: Inhibition of scopolamine-induced cognitive deficit in Wistar rat at 100 mg/kg, ip by passive avoidance test; format: functional, organism-based; parameters: dose 100 mg/kg
Liver microsomes [6] = details: human
Description: Clearance in human liver microsomes

Liver microsomes [7] = details: rat
Description: Clearance in rat liver microsomes

SMILES | Ki [1] [nM] | further results
CCOC(=O)c1ncn2c1Cn1cnnc1-c1cc(C)ccc1-2 | 2.1 | –
CCOC(=O)c1ncn2c1Cn1cnnc1-c1cc(F)ccc1-2 | 1.7 | –
Cc1ncn2c1Cn1cc(CO)nc1-c1cc(Br)ccc1-2 | 8.1 | –
CCOC(=O)c1ncn2c1Cn1ncnc1-c1cc(OC(F)(F)F)ccc1-2 | 0.8 | –
CCOC(=O)c1ncn2c1Cn1ncnc1-c1cc(C)ccc1-2 | 0.5 | –
CCOC(=O)c1ncn2c1Cc1cncnc1-c1cc(Br)ccc1-2 | 20.2 | –
CCOC(=O)c1ncn2c1Cc1cnc(C)nc1-c1ccccc1-2 | 3.8 | –
CCOC(=O)c1ncn2c1Cn1ncnc1-c1cc(NC(=O)C(C)C)ccc1-2 | 6.4 | –
CCOC(=O)c1ncn2c1Cc1cnc(C3CC3)nc1-c1cc(F)ccc1-2 | 7.8 | –
CCOC(=O)c1ncn2c1Cc1cnc(C(C)C)nc1-c1cc(F)ccc1-2 | 11.2 | –
CCCc1ncc2c(n1)-c1ccccc1-n1cnc(C(=O)OCC)c1C2 | 5.5 | –
CCOC(=O)c1ncn2c1Cn1cnnc1-c1cc(OC)ccc1-2 | 1.4 | inhibition (Rattus norvegicus [2]): Active
CCCc1ncc2c(n1)-c1cc(F)ccc1-n1cnc(C(=O)OCC)c1C2 | 8 | –
CC(C)C(=O)c1ncn2c1Cn1cnnc1-c1cc(Br)ccc1-2 | 55.5 | –
CCOC(=O)c1ncn2c1Cc1cnc(C(C)C)nc1-c1ccccc1-2 | 8.9 | –
CCOC(=O)c1ncn2c1Cn1ncnc1-c1cc(Cl)ccc1-2 | 0.2 | logD (physchem [3]): 1.83; Papp (in vitro): 5.59 ×10⁻⁶ cm/s; solubility (physchem [4]): 15 µg/mL (≈ 45.5 µM)
CCOC(=O)c1ncn2c1Cn1c(Cc3ccccc3)nnc1-c1cc(OC)ccc1-2 | 22.9 | –
Cc1ncn2c1Cn1cc(CN3CCCC3=O)nc1-c1cc(Br)ccc1-2 | 1.6 | –
Clc1ncn2c1Cn1cnnc1-c1cc(Br)ccc1-2 | 27.4 | –
CCOC(=O)c1ncn2c1Cc1cnc(-c3ccccc3)nc1-c1ccccc1-2 | 171 | –
O=C(c1ncn2c1Cn1nccc1-c1ccccc1-2)C1CC1 | 1 | –

SMILES | Ki [1] [nM] | further results
CCOC(=O)c1ncn2c1Cn1c(-c3ccccc3)nnc1-c1cc(OC)ccc1-2 | 53.8 | –
Cc1ncc2c(n1)-c1cc(Br)ccc1-n1cnc(Cl)c1C2 | 61 | –
CCOC(=O)c1cn2c(n1)-c1cc(Br)ccc1-n1cnc(C)c1C2 | 5.4 | –
CCOC(=O)c1ncn2c1Cn1cnnc1-c1ccccc1-2 | 0.8 | –
CCOC(=O)c1ncn2c1Cn1ncnc1-c1cc(OC)ccc1-2 | 0.2 | –
Cc1ncn2c1Cn1cnnc1-c1cc(Br)ccc1-2 | 150 | –
CCOC(=O)c1ncn2c1Cn1ncnc1-c1cc(C3CC3)ccc1-2 | 0.6 | –
c1ccc2c(c1)-c1ncncc1Cc1cncn1-2 | 410 | –
C#Cc1ccc2c(c1)-c1nncn1Cc1c(C(=O)OCC)ncn1-2 | 2.3 | –
CCOC(=O)c1ncn2c1Cc1cnc(C)nc1-c1cc(Br)ccc1-2 | 12.5 | inhibition (Rattus norvegicus [5]): Active; logD (physchem [3]): 2.68; CL (Liver microsomes [6]): 4000 µL/min/mg; Papp (in vitro): 3.6 ×10⁻⁶ cm/s; solubility (physchem [4]): 20 µg/mL (≈ 50.1 µM)
Clc1ncn2c1Cc1cncnc1-c1ccccc1-2 | 15.6 | –
CCOC(=O)c1ncn2c1Cn1cnnc1-c1cc(O)ccc1-2 | 0.6 | –
CCOC(=O)c1ncn2c1Cc1cnc(Cc3ccc(OC)cc3)nc1-c1ccccc1-2 | 12.5 | –
C#Cc1ccc2c(c1)-c1ncnn1Cc1c(C(=O)OCC)ncn1-2 | 0.6 | –
CCOC(=O)c1ncn2c1Cc1cncnc1-c1ccccc1-2 | 3.7 | –
Brc1ccc2c(c1)-c1nncn1Cc1c(I)ncn1-2 | 7.8 | –
CCOC(=O)c1ncn2c1Cn1c(Cc3ccccc3)nnc1-c1cc(Br)ccc1-2 | 19.1 | –
c1ccc2c(c1)-c1ncnn1Cc1cncn1-2 | 6.4 | logD (physchem [3]): 0.73; CL (Liver microsomes [7]): 4000 µL/min/mg; CL (Liver microsomes [6]): 8000 µL/min/mg; Papp (in vitro): 2.87 ×10⁻⁶ cm/s; solubility (physchem [4]): 231 µg/mL (≈ 1030 µM)
C#Cc1ccc2c(c1)-c1nc(C)ncc1Cc1c(C(=O)OCC)ncn1-2 | 8.1 | logD (physchem [3]): 2.68; CL (Liver microsomes [6]): 8000 µL/min/mg; Papp (in vitro): 2.78 ×10⁻⁶ cm/s; solubility (physchem [4]): 10 µg/mL (≈ 29 µM)
N#Cc1ccc2c(c1)-c1nncn1Cc1c(Cl)ncn1-2 | 25.3 | –
C#Cc1ccc2c(c1)-c1nncn1Cc1c(Cl)ncn1-2 | 33.6 | –

SMILES | Ki [1] [nM] | further results
CCOC(=O)c1ncn2c1Cn1ncnc1-c1ccccc1-2 | 0.2 | –
Cc1ncc2c(n1)-c1ccccc1-n1cnc(Cl)c1C2 | 15.6 | –
CCOC(=O)c1ncn2c1Cn1c(C)nnc1-c1cc(OC)ccc1-2 | 14.5 | –
Cc1cn2c(n1)-c1cc(Br)ccc1-n1cnc(C)c1C2 | 119 | –
CCOC(=O)c1ncn2c1Cn1ncnc1-c1cc(Br)ccc1-2 | 0.3 | –
CCOC(=O)c1ncn2c1Cn1cnnc1-c1cc(Cl)ccc1-2 | 1.2 | –
CCOC(=O)c1ncn2c1Cc1cnc(C)nc1-c1cc(F)ccc1-2 | 4.6 | –
Cc1ncn2c1Cn1nccc1-c1cc(Br)ccc1-2 | 49.1 | –
C#Cc1ccc2c(c1)-c1nc(C)ncc1Cc1c(Cl)ncn1-2 | 133 | –
CCOc1ncn2c1Cn1nccc1-c1cc(Cl)ccc1-2 | 1.4 | –
Cc1ncn2c1Cn1ccnc1-c1cc(Br)ccc1-2 | 6.6 | –
Cc1ncn2c1Cn1nccc1-c1ccccc1-2 | 3 | –
C#Cc1ncn2c1Cn1cnnc1-c1cc(Br)ccc1-2 | 7.8 | –
CCOC(=O)c1ncn2c1Cn1cnnc1-c1cc(Br)ccc1-2 | 0.6 | –
CCOc1ncn2c1Cn1nccc1-c1ccccc1-2 | 0.2 | –
Clc1ncn2c1Cn1nccc1-c1ccccc1-2 | 2 | –
Cc1ncn2c1Cn1c(C)cnc1-c1cc(Br)ccc1-2 | 11.7 | –
CCOC(=O)c1ncn2c1Cc1cnc(C3CC3)nc1-c1ccccc1-2 | 7.6 | –
Clc1ncn2c1Cc1cncnc1-c1cc(Br)ccc1-2 | 136 | –
